pIC50: −log10 of the molar value.
The compounds below were run against Aldo-keto reductase family 1 member B1 (Bos taurus, UniProt P16116) (assay: Inhibition of bovine aldose reductase).

pIC50	Compound
6.15	COc1cc(/C=C2\SC(=O)N(CC(=O)O)C2=O)ccc1O
4.93	COc1cc(/C=C2\SC(=O)NC2=O)ccc1O
6.22	O=C(O)COc1ccc(/C=C2\SC(=O)N(CC(=O)O)C2=O)cc1
6.64	O=C(O)COc1cccc(/C=C2\SC(=O)N(CC(=O)O)C2=O)c1
6.59	COc1cc(/C=C2\SC(=O)N(CC(=O)O)C2=O)ccc1OCC(=O)O
6.25	COc1ccc(/C=C2\SC(=O)N(CC(=O)O)C2=O)cc1O

Each compound was assayed against Aldo-keto reductase family 1 member B1 (Bos taurus) (UniProt P16116) (assay: Inhibition of bovine aldose reductase at 12.5 uM).

inhibition	Compound
33%	COc1ccc(/C=C2\SC(=O)NC2=O)cc1O

Reference: ChEMBL document CHEMBL1148892, “Evaluation of in vitro aldose redutase inhibitory activity of 5-arylidene-2,4-thiazolidinediones” (Bioorg Med Chem Lett, 2007)
